10 molecules from BindingDB's records for patent US12011444 (Idorsia Pharmaceuticals, 2024) can be followed below.

Assay [1] addresses Prostaglandin E2 receptor EP2 subtype (Homo sapiens, UniProt P43116). As to the kind of experiment: hEP2 cAMP Assay.
Experimental: Plate is pre-incubated 45 minutes at room temperature. […] Plate is incubated 30 minutes at room temperature. […] For each compound concentration the percentage of cAMP compared to DMSO control value as average±STDEV (each concentration is measured in duplicate) is calculated.
Assay [2] has as its target Prostaglandin E2 receptor EP4 subtype (Homo sapiens, UniProt P35408). As to the kind of experiment: hEP4 cAMP Assay. As for the experimental part: Plate is pre-incubated 45 minutes at room temperature. Subsequently, 2.5 microliters of PGE2 (final conc. 6 nM) are transferred into the assay plate. Plate is incubated 30 minutes at room temperature.

Prostaglandin E2 receptor EP2 subtype, sequence (P43116 whole entry): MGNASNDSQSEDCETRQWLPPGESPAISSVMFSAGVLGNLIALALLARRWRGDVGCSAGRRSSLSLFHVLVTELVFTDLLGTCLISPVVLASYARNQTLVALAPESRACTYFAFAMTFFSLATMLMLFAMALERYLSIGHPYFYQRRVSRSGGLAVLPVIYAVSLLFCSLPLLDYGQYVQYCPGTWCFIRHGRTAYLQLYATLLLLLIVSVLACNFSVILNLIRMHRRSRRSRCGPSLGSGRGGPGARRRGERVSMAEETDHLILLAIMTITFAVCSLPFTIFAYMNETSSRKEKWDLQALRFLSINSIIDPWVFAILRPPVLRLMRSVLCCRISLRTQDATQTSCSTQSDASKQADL
Prostaglandin E2 receptor EP4 subtype, sequence (P35408 whole entry): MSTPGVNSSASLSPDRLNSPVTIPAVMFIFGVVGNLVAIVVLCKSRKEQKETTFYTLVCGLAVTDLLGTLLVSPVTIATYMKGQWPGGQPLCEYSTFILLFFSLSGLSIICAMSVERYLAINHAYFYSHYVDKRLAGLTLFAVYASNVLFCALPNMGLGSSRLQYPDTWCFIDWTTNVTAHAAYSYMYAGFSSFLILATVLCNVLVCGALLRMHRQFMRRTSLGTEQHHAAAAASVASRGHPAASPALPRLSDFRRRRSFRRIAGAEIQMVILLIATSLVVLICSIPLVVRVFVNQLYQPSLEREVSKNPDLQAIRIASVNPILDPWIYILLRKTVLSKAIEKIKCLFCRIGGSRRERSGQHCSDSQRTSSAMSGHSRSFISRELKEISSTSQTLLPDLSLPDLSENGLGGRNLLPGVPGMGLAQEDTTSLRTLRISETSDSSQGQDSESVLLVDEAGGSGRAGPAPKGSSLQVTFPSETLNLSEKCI

On to `COc1ccc(F)c2c1cc(C)n2CCNc1cc(-c2ccc(C(=O)O)c(N)c2)ncn1` [US12011444, Example 214], for which the IC50 (in general, the concentration needed to halve the response being measured) in assay [1] worked out at 38 nM; in assay [2] it was 786 nM.
In the case of `COc1cc(F)c(F)c2c1cc(C)n2CCNc1cc(-c2ccc3oc(C)nc3c2)ncn1` [US12011444, Example 689], the half-inhibitory concentration (IC50) was 211 nM in assay [1] and 558 nM in assay [2].
On to `CCOc1cc(-c2cc(NCCn3c(C)cc4c(OC)ccc(F)c43)ncn2)ccc1C(=O)NOCc1ccccc1` [US12011444, Example 766], for which the results for the IC50 in assay [1] and in assay [2] were 57 nM and 80 nM, respectively.
On the same counts, the results for `Cc1ccc(F)c2c1cc(C)n2CCNc1cc(-c2ccc3c(c2)CNC3=O)ncn1` [US12011444, Example 65] are 41 nM and 697 nM.
On the same counts, the results for `CCOc1cc(-c2cc(NCCn3c(C)cc4c(C)ccc(F)c43)ncn2)ccc1C(=O)NOCCO` [US12011444, Example 771] are 19 nM and 310 nM.
On the same counts, the results for `Cc1cc(F)cc2c1cc(C)n2CCNc1cc(-c2cccc(-n3cccn3)c2)ncn1` [US12011444, Example 729] are 45 nM and 783 nM.
As for `Cc1cc(F)cc2c1cc(C)n2CCNc1cc(-c2ccc(C(=O)O)c(NCC(F)(F)F)c2)ncn1` [US12011444, Example 559], the IC50 in assay [1] stood at 4 nM; in assay [2], 247 nM.
On the same counts, the results for `CCOc1cc(-c2cc(NCCn3c(C)cc4c(OC)ccc(F)c43)ncn2)ccc1C(=O)NOCCO` [US12011444, Example 769] are 11 nM and 259 nM.
Take `COc1ccc(F)c2c1cc(C)n2CCNc1cc(-c2ccc(C(=O)O)c(C(C)(C)C)c2)ncn1` [US12011444, Example 535]: the results for the IC50 in assay [1] and in assay [2] were 68 nM and 136 nM, respectively.
Taken in the same sequence, the figures for `COc1cc(F)cc2c1cc(C)n2CCNc1cc(-c2cc(O)cs2)ncn1` [US12011444, Example 801] were 20 nM and 139 nM.
